How the values were obtained:
cancer cell lines = assay: crystal violet assay, cancer cell lines overall; assay type: cell-based; conditions: as seen in previous tables
Description: Compound 1 and a comparative compound deferasirox (DFX) were tested in their efficacy to kill/suppress proliferation of malignant breast cancer MCF7 cells representing estrogen-dependent type of breast cancer. Briefly, 10.000 cells per well were seeded in a 96-well plate on one day and the next day the tested compounds were added and incubated with the cells for 48 hrs. The cells were then fixed with 4% paraformaldehyde, stained with 0.05% crystal violet, washed with PBS, and solubilized in 1% SDS. The absorbance of the plate at 595 nm was then measured, quantifying the number of viable cells.

MCF7 cells [1] = assay: oxygen consumption rate (OCR), Seahorse XFe96; assay type: cell-based; conditions: for Oxygen consumption rate, Basal / Oxygen consumption rate, Maximal / Oxygen consumption rate, Proton-leak: MCF7
Description: For Seahorse analysis, 20.000 cells were seeded in 96 well plates and added immediately before measurement (addition, Table 6) or incubated with compound 1 for 1 hour (preincubation, Table 7). Afterwards, oxygen consumption rate (OCR) was measured in three cycles of 3 minutes preceded by 3 minutes of mixing, using a Seahorse XFe96 analyzer (Agilent). Results express the mean values of the three cycles.

[2] = system: triple negative breast cancer cells (MDA-MB-231) xenograft; assay: tumor growth in xenograft model; assay type: in vivo, NOD/SCID gamma mice; conditions: for relative tumor size compared to day 0: 2/week
Description: The effect of compound 1 on tumor growth in vivo was assessed in a xenograft model of triple negative breast cancer cells (MDA-MB-231) injected into NOD/SCID gamma mice. 1×10^6 cells were injected subcutaneously into each mouse. When the tumors were approximately 10 mm^3 in volume, the animals were randomly divided in two groups and injected intra-peritoneally with either compound 1 (2 mg/kg in corn oil) or vehicle (2.5% DMSO in corn oil), twice per week for 21 days. Tumor size was determined by ultrasound using a Vevo 3100 Preclinical Imaging System (VisualSonics).

MDA-MB-231 [3] = assay: annexin V/PI staining, cell death induction, 48 hrs; assay type: cell-based
MDA-MB-231 [4] = assay: cell cycle distribution, Vybrant DyeCycle Violet, flow cytometry; assay type: cell-based; conditions: 1 μM
Description: (§1) In order to define the effect on cellular level, we investigated the effect of compound 1 and 2 at non-cytotoxic concentrations of the drugs (1 μM) on cell cycle. Cells were cultivated with the compounds for 24 and 48 hrs and then stained with Vybrant DyeCycle VioletReady Flow reagent (ThermoFisher Scientific) that binds to DNA and analyzed by Flow cytometry and Kaluza program to define the proportions of G1,S and G2/M phases of cell cycle. It is evident that both compounds lead to accumulation of cells in G1 phase if the cell cycle, which become more prominent at later time points (see Table 12, 13).

MCF7 = assay: as above; assay type: cell-based; conditions: 1 μM
Description: as §1

MCF7 cells [5] = assay: real time monitoring of cell confluence via Juli FL; assay type: cell-based; conditions: 30 nM
Description: We also tested the ability of compound 1 to suppress proliferation of cancer cells by an alternative approach via the real time monitoring with a cellular analyser Juli F L. In brief, MCF7 cells were seeded in a 6-well plate the day before to reach approximately 5% confluence on the following day. Next day, the camera of the instrument was focused on a particular field with approximately 5% confluence and cells were continuously monitored, recording the confluence and visual appearance every 30 minutes for 48 hrs. Values were then expressed either as simple confluence at the end of the experiment or as slope of the line representing the confluence during a given period of time (Table 5).

Q: How did the “efficacy against cancer cell lines” value (cancer cell lines) turn out when `O=C(NCCCCCCCCCC[P+](c1ccccc1)(c1ccccc1)c1ccccc1)c1ccc(-n2nc(-c3ccccc3O)nc2-c2ccccc2O)cc1` [Compound 1, (10-(4-(3,5-bis(2-hydroxyphenyl)-1H-1,2,4-triazol-1-yl)benzamido)decyl) triphenylphosphonium Chloride] was run?
A: 10 to 100 nM

Q: What about the “Oxygen consumption rate, Basal” value (MCF7 cells [1]; 5 μM, 1 h preincubation) of the same compound?
A: 39.9 (5.8) pmol*min^−1 10.000 cells^−1

Q: And the “Oxygen consumption rate, Maximal” value (MCF7 cells [1]; 5 μM, 1 h preincubation)?
A: 20.7 (4.5) pmol*min^−1 10.000 cells^−1

Q: And the “Oxygen consumption rate, Proton-leak” value (MCF7 cells [1]; 5 μM, 1 h preincubation)?
A: 33.1 (4.7) pmol*min^−1 10.000 cells^−1

Q: And the “Oxygen consumption rate, Basal” value (MCF7 cells [1]; 5 μM, immediate addition)?
A: 52.4 (9.2) pmol*min^−1 10.000 cells^−1

Q: What about the “Oxygen consumption rate, Maximal” value (MCF7 cells [1]; 5 μM, immediate addition) of the same compound?
A: 29.7 (5.8) pmol*min^−1 10.000 cells^−1

Q: And the “Oxygen consumption rate, Proton-leak” value (MCF7 cells [1]; 5 μM, immediate addition)?
A: 43.5 (7.6) pmol*min^−1 10.000 cells^−1

Q: And the “Oxygen consumption rate, Basal” value (MCF7 cells [1]; 10 μM, 1 h preincubation)?
A: 30.9 (3.1) pmol*min^−1 10.000 cells^−1

Q: And the “Oxygen consumption rate, Maximal” value (MCF7 cells [1]; 10 μM, 1 h preincubation)?
A: 17.4 (3.8) pmol*min^−1 10.000 cells^−1

Q: What about the “Oxygen consumption rate, Proton-leak” value (MCF7 cells [1]; 10 μM, 1 h preincubation) of the same compound?
A: 25.9 (3.1) pmol*min^−1 10.000 cells^−1

Q: And the “Oxygen consumption rate, Basal” value (MCF7 cells [1]; 10 μM, immediate addition)?
A: 49.6 (9.6) pmol*min^−1 10.000 cells^−1

Q: And the “Oxygen consumption rate, Maximal” value (MCF7 cells [1]; 10 μM, immediate addition)?
A: 26.3 (5.4) pmol*min^−1 10.000 cells^−1

Q: What about the “Oxygen consumption rate, Proton-leak” value (MCF7 cells [1]; 10 μM, immediate addition) of the same compound?
A: 37.3 (6.1) pmol*min^−1 10.000 cells^−1

Q: And the “effect on cellular respiration” value (MCF7 cells [1]; OCR, Seahorse)?
A: marked inhibition of cellular respiration

Q: And the “effect on tumor growth” value ([2]; 2 mg/kg intra-peritoneally, twice per week for 21 days)?
A: significantly slows down the tumor growth

Q: What about the “relative tumor size compared to day 0” value ([2]; day 4, 2 mg/kg intra-peritoneally) of the same compound?
A: 1.18 (0.3)

Q: What about the “relative tumor size compared to day 0” value ([2]; day 7, 2 mg/kg intra-peritoneally) of the same compound?
A: 2.04 (0.3)

Q: What about the “relative tumor size compared to day 0” value ([2]; day 10, 2 mg/kg intra-peritoneally) of the same compound?
A: 3.00 (0.4)

Q: What about the “relative tumor size compared to day 0” value ([2]; day 14, 2 mg/kg intra-peritoneally) of the same compound?
A: 4.90 (0.8)

Q: And the “relative tumor size compared to day 0” value ([2]; day 17, 2 mg/kg intra-peritoneally)?
A: 4.44 (0.3)

Q: What about the “relative tumor size compared to day 0” value ([2]; day 21, 2 mg/kg intra-peritoneally) of the same compound?
A: 5.12 (0.6)

Q: And the “dead cells (AnnexinV/PI)” value (MDA-MB-231 [3]; 5 μM)?
A: 53.5 (23.1) %

Q: And the “dead cells (AnnexinV/PI)” value (MDA-MB-231 [3]; 5 μM, +Fe^+3 (pre-loaded with iron at a 2:1 ratio))?
A: 15.9 (2.7) %

Q: What about the “dead cells (AnnexinV/PI)” value (MDA-MB-231 [3]; 5 μM, alone) of the same compound?
A: 61.1 (18.8) %

Q: What about the “dead cells (AnnexinV/PI)” value (MDA-MB-231 [3]; 10 μM, +Fe^+3 (pre-loaded with iron at a 2:1 ratio)) of the same compound?
A: 22.4 (6.1) %

Q: And the “dead cells (AnnexinV/PI)” value (MDA-MB-231 [3]; 10 μM, alone)?
A: 88.2 (5.8) %

Q: What about the “proportion of cells in G1” value (MDA-MB-231 [4]; 24 hrs) of the same compound?
A: 64.6 (2.0)

Q: And the “proportion of cells in G2” value (MDA-MB-231 [4]; 24 hrs)?
A: 27.7 (2.3)

Q: What about the “proportion of cells in S” value (MDA-MB-231 [4]; 24 hrs) of the same compound?
A: 7.7

Q: What about the “proportion of cells in G1” value (MDA-MB-231 [4]; 48 hrs) of the same compound?
A: 65.0 (4.1)

Q: What about the “proportion of cells in G2” value (MDA-MB-231 [4]; 48 hrs) of the same compound?
A: 25.2 (3.3)

Q: What about the “proportion of cells in S” value (MDA-MB-231 [4]; 48 hrs) of the same compound?
A: 9.8

Q: And the “proportion of cells in G1” value (MCF7; 24 hrs)?
A: 82.8 (1.6)

Q: And the “proportion of cells in G2” value (MCF7; 24 hrs)?
A: 13.2

Q: What about the “proportion of cells in S” value (MCF7; 24 hrs) of the same compound?
A: 4.0

Q: What about the “proportion of cells in G1” value (MCF7; 48 hrs) of the same compound?
A: 75.8 (2.1)

Q: What about the “proportion of cells in G2” value (MCF7; 48 hrs) of the same compound?
A: 12.4 (2.5)

Q: What about the “proportion of cells in S” value (MCF7; 48 hrs) of the same compound?
A: 11.9 (2.3)

Q: What about the “effect on cellular proliferation” value (MCF7 cells [5]; MCF7) of the same compound?
A: significant inhibition of cellular proliferation

Q: And the Final % confluence (MCF7 cells [5]; MCF7, 48 hrs)?
A: 15.01 (3.4) %

Q: What about the “Slope 0-22 h (confluence versus time)” value (MCF7 cells [5]; MCF7, Juli FL) of the same compound?
A: 0.258 (0.005)

Q: And the “Slope 22-48 h (confluence versus time)” value (MCF7 cells [5]; MCF7, Juli FL)?
A: 0.404 (0.005)
